For three compounds, Ke, ΔTm and Activity results are on record in ChEMBL document CHEMBL2069255, “Synthesis and DNA binding properties of 1-(3-aminopropyl)-imidazole-containing triamide f-Im*PyIm: a novel diamino polyamide designed to target 5'-ACGCGT-3'” (Bioorg Med Chem Lett, 2012).

Active and inactive are the calls of the source. The rule behind the calls is not given here. Some results are limits rather than exact numbers.

Common to all, as to assay type: nucleic-acid assay
In assay [1] the test system is Nucleic Acid. The assay can be described thus: Binding affinity to AAATTT DNA by SPR assay. (In general: In SPR one partner is held on a chip, and binding of the other changes the refractive index at the surface.)
The subject of assay [2] is Nucleic Acid. The assay can be described thus: Binding affinity to ACGCGT DNA assessed as change in melting temperature by thermal denaturation assay.
In assay [3] the test system is Nucleic Acid. The assay can be described thus: Binding affinity to AAATTT DNA assessed as change in melting temperature by thermal denaturation assay.
For assay [4], the system named is Nucleic Acid. The assay can be described thus: Binding affinity to ACGCGT DNA by SPR assay.
For assay [5], the system named is Nucleic Acid. Put plainly: Binding affinity to ACGCGT DNA by ITC assay.
Assay [6] relates to Nucleic Acid. The assay can be described thus: Binding affinity to ATGCAT DNA assessed as change in melting temperature by thermal denaturation assay.
The subject of assay [7] is Nucleic Acid. Put plainly: Binding affinity to ACATGT DNA by SPR assay.

Regarding `CN(C)CCNC(=O)c1nc(NC(=O)c2cc(NC(=O)c3nc(NC=O)cn3C)cn2C)cn1C`, the values for the Ke with Nucleic Acid [1] and with Nucleic Acid [4] were 5.3 ×10⁴ /M and 1.9 ×10⁸ /M, respectively. In addition, the results for the ΔTm in the assay on Nucleic Acid [2] and with Nucleic Acid [3] were 7.8 °C and 1 °C, respectively. Besides, the result with Nucleic Acid [5] was Active.

In the case of `CN(C)CCNC(=O)c1nc(NC(=O)c2cc(NC(=O)c3nc(NC=O)cn3C)cn2CCCN)cn1C`, the ΔTm (commonly the shift of the melting midpoint relative to a reference) is > 24 °C in the assay with Nucleic Acid [2], 10 °C with Nucleic Acid [3] and 24 °C with Nucleic Acid [6]. In addition, in the assay on Nucleic Acid [4], the Ke came out at 2.4 ×10⁸ /M. The result in the assay with Nucleic Acid [5] was Active.

On to `CN(C)CCNC(=O)c1nc(NC(=O)c2cc(NC(=O)c3nc(NC=O)cn3CCCN)cn2C)cn1C`, for which the Ke amounted to 2.2 ×10⁶ /M in the assay with Nucleic Acid [1], 3.7 ×10⁶ /M with Nucleic Acid [7] and 2.3 ×10⁷ /M in the assay with Nucleic Acid [4]. Further, the ΔTm was > 20 °C in the assay with Nucleic Acid [2], 11 °C in the assay on Nucleic Acid [3] and 20 °C in the assay with Nucleic Acid [6]. Further, in the assay with Nucleic Acid [5], the outcome was Active.
